Measurements: ChEMBL document CHEMBL1909046, “DrugMatrix in vitro pharmacology data”

Assays:
[1] = DRUGMATRIX: Purinergic P2X radioligand binding (ligand: [3H] alpha, beta-Methylene-ATP); format: cell membranes, Oryctolagus cuniculus, New Zealand albino, Urinary bladder, Membrane; settings: Not Active = under 50% inhibition at 10 µM
[2] = molecular target: Platelet-activating factor receptor (Homo sapiens, UniProt P25105); assay: biochemical; format: tissue-based; settings: platelet; further: in other assays of this panel Not Active means under 50% inhibition at 10 µM
Platelet-activating factor receptor, sequence (P25105 whole entry): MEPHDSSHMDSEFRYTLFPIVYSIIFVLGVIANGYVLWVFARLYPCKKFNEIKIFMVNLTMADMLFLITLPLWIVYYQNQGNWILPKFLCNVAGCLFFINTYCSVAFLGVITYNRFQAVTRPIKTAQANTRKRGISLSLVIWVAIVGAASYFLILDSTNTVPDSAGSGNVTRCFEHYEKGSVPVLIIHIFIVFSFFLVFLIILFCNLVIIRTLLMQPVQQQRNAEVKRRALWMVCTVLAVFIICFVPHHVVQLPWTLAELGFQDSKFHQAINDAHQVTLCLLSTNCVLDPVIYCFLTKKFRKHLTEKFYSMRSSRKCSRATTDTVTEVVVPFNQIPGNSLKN

[3] = DRUGMATRIX: Glutamate, Kainate radioligand binding (ligand: [3H] Kainic acid); format: cell membranes, Rattus norvegicus, Wistar, Brain, Membrane; settings: Not Active = under 50% inhibition at 10 µM
Endothelin-1 receptor = molecular target: T1, Endothelin-1 receptor (Homo sapiens, UniProt P25101); format: cell membranes, CHO-K1, Membrane; settings: cho-k1; further: in other assays of this panel Not Active means under 50% inhibition at 10 µM
T1 sequence (P25101 whole entry): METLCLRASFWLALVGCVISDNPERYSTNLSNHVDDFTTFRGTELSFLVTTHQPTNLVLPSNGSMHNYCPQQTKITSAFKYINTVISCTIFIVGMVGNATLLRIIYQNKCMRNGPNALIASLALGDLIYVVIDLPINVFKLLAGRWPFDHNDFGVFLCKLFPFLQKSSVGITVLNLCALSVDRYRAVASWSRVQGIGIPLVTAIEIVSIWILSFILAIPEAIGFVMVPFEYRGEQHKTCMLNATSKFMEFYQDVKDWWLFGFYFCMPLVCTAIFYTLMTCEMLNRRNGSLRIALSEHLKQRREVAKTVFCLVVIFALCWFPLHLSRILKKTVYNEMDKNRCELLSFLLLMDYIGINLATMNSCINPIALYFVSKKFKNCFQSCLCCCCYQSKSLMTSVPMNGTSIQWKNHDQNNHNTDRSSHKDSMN

[4] = molecular target: 5-hydroxytryptamine receptor 2B (Homo sapiens, UniProt P41595); format: cell membranes, CHO-K1, Membrane; settings: for Ki: read-out: Ki; on all read-outs here: in other assays of this panel Not Active means under 50% inhibition at 10 µM
5-hydroxytryptamine receptor 2B, sequence (P41595 whole entry): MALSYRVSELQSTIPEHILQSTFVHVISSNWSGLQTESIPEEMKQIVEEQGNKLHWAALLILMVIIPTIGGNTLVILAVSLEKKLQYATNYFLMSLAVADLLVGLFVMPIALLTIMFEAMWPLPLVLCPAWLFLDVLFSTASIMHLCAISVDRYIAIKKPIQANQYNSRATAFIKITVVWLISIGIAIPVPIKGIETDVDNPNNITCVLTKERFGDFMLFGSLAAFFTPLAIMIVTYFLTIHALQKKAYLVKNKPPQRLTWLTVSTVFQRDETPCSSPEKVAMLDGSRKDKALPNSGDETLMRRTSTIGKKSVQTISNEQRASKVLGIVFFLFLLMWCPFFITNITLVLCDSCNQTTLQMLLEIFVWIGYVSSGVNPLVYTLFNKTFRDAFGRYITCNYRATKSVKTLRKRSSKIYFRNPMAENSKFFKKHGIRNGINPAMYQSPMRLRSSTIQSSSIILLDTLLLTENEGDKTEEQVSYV

Cytochrome P450 2E1 = Cytochrome P450 2E1 (Homo sapiens, UniProt P05181); settings: bti-tn-5b1-4; further: in other assays of this panel Not Active means under 50% inhibition at 10 µM
Cytochrome P450 2E1, sequence (P05181 whole entry): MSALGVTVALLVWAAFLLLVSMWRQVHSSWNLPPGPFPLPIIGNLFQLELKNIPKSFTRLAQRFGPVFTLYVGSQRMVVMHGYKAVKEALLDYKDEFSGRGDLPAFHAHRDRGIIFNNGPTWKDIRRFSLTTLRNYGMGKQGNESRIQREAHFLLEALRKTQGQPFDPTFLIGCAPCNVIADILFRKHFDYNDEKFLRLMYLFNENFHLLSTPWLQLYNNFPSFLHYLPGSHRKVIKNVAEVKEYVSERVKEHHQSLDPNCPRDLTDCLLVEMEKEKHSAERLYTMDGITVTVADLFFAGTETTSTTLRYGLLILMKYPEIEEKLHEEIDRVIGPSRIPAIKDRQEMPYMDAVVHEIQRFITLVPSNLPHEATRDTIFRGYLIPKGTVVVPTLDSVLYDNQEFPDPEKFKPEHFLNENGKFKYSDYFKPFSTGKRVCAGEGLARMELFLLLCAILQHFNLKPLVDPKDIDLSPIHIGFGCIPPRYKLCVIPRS

[5] = molecular target: Beta-3 adrenergic receptor (Homo sapiens, UniProt P13945); assay: DRUGMATRIX: Adrenergic beta3 radioligand binding (ligand: [125I] Cyanopindolol); format: cell membranes, HEK293, Membrane; settings: hek293; Not Active = under 50% inhibition at 10 µM
Beta-3 adrenergic receptor, sequence (P13945 whole entry): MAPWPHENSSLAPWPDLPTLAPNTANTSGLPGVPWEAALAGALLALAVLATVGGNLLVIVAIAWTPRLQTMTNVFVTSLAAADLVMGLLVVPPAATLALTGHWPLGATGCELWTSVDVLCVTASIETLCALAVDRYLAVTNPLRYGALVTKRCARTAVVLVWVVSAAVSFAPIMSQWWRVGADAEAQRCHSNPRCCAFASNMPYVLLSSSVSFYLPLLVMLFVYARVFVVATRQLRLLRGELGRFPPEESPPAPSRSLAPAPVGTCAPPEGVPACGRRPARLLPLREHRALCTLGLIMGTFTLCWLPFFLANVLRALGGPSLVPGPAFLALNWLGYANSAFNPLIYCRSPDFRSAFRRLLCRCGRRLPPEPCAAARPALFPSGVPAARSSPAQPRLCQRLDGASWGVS

SMILES | IC50 [1] | Ki [1] | IC50 [2] | IC50 [3] | Ki [3] | IC50 (Endothelin-1 receptor) | IC50 ([4]; cho-k1) | IC50 (Cytochrome P450 2E1) | Ki (Cytochrome P450 2E1) | IC50 [5] | IC50 ([4]; read-out: IC50) [µM] | Ki [4] [µM]
Nn1nnc2ccccc21 | Not Active | Not Active | Not Active | Not Active | Not Active | Not Active | Not Active | Not Active | Not Active | Not Active | – | –
CC[C@]1(O)CC[C@H]2[C@@H]3CCC4=CCCC[C@@H]4[C@H]3CC[C@@]21C | Not Active | Not Active | Not Active | Not Active | Not Active | Not Active | Not Active | Not Active | Not Active | Not Active | – | –
N[C@@H](Cc1ccc(F)cc1)C(=O)O | Not Active | Not Active | Not Active | Not Active | Not Active | Not Active | Not Active | – | – | Not Active | – | –
CCOC(=O)[C@H](CCc1ccccc1)N[C@@H](C)C(=O)N1Cc2ccccc2C[C@H]1C(=O)O | Not Active | Not Active | Not Active | Not Active | Not Active | Not Active | Not Active | Not Active | Not Active | Not Active | – | –
O=C(c1ccccc1Cl)N1CCC(Cc2ccccc2)CC1 | Not Active | Not Active | Not Active | Not Active | Not Active | Not Active | – | Not Active | Not Active | Not Active | 1.51 | 0.96
CCOC(=O)[C@H](CCc1ccccc1)N[C@@H](C)C(=O)N1CCC[C@H]1C(=O)O | Not Active | Not Active | Not Active | Not Active | Not Active | Not Active | Not Active | Not Active | Not Active | Not Active | – | –
Clc1cc2c(cc1Cl)Oc1cc(Cl)c(Cl)cc1O2 [2,3,7,8-TETRACHLORODIBENZO-P-DIOXIN] | Not Active | Not Active | Not Active | Not Active | Not Active | Not Active | Not Active | Not Active | Not Active | Not Active | – | –
C=C1/C(=C\C=C2/CCC[C@]3(C)[C@@H]([C@H](C)CCCC(C)C)CC[C@@H]23)C[C@@H](O)C[C@@H]1O [ALFACALCIDOL] | Not Active | Not Active | Not Active | Not Active | Not Active | Not Active | Not Active | Not Active | Not Active | Not Active | – | –
CCCCCC[C@H]1C(=O)O[C@H](C)[C@H](NC(=O)c2cccc(NC=O)c2O)C(=O)O[C@@H](C)[C@@H]1OC(=O)CC(C)C [ANTIMYCIN A] | Not Active | Not Active | Not Active | Not Active | Not Active | Not Active | Not Active | Not Active | Not Active | Not Active | – | –
C[C@@H]1CC[C@H]2[C@@H](C)C(=O)O[C@@H]3O[C@@]4(C)CC[C@@H]1[C@]32OO4 [ARTEMISININ] | Not Active | Not Active | Not Active | Not Active | Not Active | Not Active | Not Active | – | – | Not Active | – | –
CO[C@H]1[C@@H](O)[C@H](N)[C@@H](O[C@H]2O[C@H]([C@H](C)N)CC[C@H]2N)[C@H](O)[C@@H]1N(C)C(=O)CN [ASTROMICIN] | Not Active | Not Active | Not Active | Not Active | Not Active | Not Active | Not Active | Not Active | Not Active | Not Active | – | –
[N-]=[N+]=CC(=O)OC[C@H](N)C(=O)O [AZASERINE] | Not Active | Not Active | Not Active | Not Active | Not Active | Not Active | Not Active | Not Active | Not Active | Not Active | – | –
CC[C@H]1OC(=O)[C@H](C)[C@@H](O[C@H]2C[C@@](C)(OC)[C@@H](O)[C@H](C)O2)[C@H](C)[C@@H](O[C@@H]2O[C@H](C)C[C@H](N(C)C)[C@H]2O)[C@](C)(O)C[C@@H](C)CN(C)[C@H](C)[C@@H](O)[C@]1(C)O [AZITHROMYCIN] | Not Active | Not Active | Not Active | Not Active | Not Active | Not Active | Not Active | Not Active | Not Active | Not Active | – | –
CC(C)(C)c1ccc(S(=O)(=O)/C=C/C#N)cc1 [BAY-11-7085] | Not Active | Not Active | Not Active | Not Active | Not Active | Not Active | Not Active | Not Active | Not Active | Not Active | – | –
CCc1oc2ccccc2c1C(=O)c1cc(Br)c(O)c(Br)c1 [BENZBROMARONE] | Not Active | Not Active | Not Active | Not Active | Not Active | Not Active | – | Not Active | Not Active | Not Active | 1.8 | 1.15
O=c1cc(-c2ccccc2)oc2ccc3ccccc3c12 [BETA-NAPHTHOFLAVONE] | Not Active | Not Active | Not Active | Not Active | Not Active | Not Active | Not Active | Not Active | Not Active | Not Active | – | –
CC(C)C[C@H]1C(=O)N2CCC[C@H]2[C@]2(O)O[C@](NC(=O)[C@@H]3C=C4c5cccc6[nH]c(Br)c(c56)C[C@H]4N(C)C3)(C(C)C)C(=O)N12 [BROMOCRIPTINE] | Not Active | Not Active | Not Active | Not Active | Not Active | Not Active | – | Not Active | Not Active | Not Active | 0.00832 | 0.00529
CS(=O)(=O)OCCCCOS(C)(=O)=O [BUSULFAN] | Not Active | Not Active | Not Active | Not Active | Not Active | Not Active | Not Active | Not Active | Not Active | Not Active | – | –
O=C(/C=C/c1ccc(O)c(O)c1)OCCc1ccccc1 [CAFFEIC ACID PHENETHYL ESTER] | Not Active | Not Active | Not Active | Not Active | Not Active | Not Active | Not Active | Not Active | Not Active | Not Active | – | –
COc1cc(CNC(=O)CCCC/C=C/C(C)C)ccc1O [CAPSAICIN] | Not Active | Not Active | Not Active | Not Active | Not Active | Not Active | Not Active | Not Active | Not Active | Not Active | – | –
NC(=O)N1c2ccccc2C=Cc2ccccc21 [CARBAMAZEPINE] | Not Active | Not Active | Not Active | Not Active | Not Active | Not Active | Not Active | Not Active | Not Active | Not Active | – | –
CCOC(=O)n1ccn(C)c1=S [CARBIMAZOLE] | Not Active | Not Active | Not Active | Not Active | Not Active | Not Active | Not Active | Not Active | Not Active | Not Active | – | –
CCC[C@@H]1C[C@@H](C(=O)N[C@@H]([C@H]2O[C@H](SC)[C@H](O)[C@@H](O)[C@H]2O)[C@H](C)Cl)N(C)C1 [CLINDAMYCIN] | Not Active | Not Active | Not Active | Not Active | Not Active | Not Active | Not Active | – | – | Not Active | – | –
Cc1cn[nH]c1 [FOMEPIZOLE] | Not Active | Not Active | Not Active | Not Active | Not Active | Not Active | Not Active | – | – | Not Active | – | –
Cc1cnc(C(=O)NCCc2ccc(S(=O)(=O)NC(=O)NC3CCCCC3)cc2)cn1 [GLIPIZIDE] | Not Active | Not Active | Not Active | Not Active | Not Active | Not Active | Not Active | – | – | Not Active | – | –
COc1ccccc1OCC(O)CO (centres undefined) [GUAIFENESIN] | Not Active | Not Active | Not Active | Not Active | Not Active | Not Active | Not Active | – | – | Not Active | – | –
C/C=C\c1ccc(O)c(OC)c1 [ISOEUGENOL] | Not Active | Not Active | Not Active | Not Active | Not Active | Not Active | Not Active | – | – | Not Active | – | –
